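Cultured in 96-well plates, cells were exposed to test compound for 48 hours across five concentrations. At the TGI there is no net growth.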

15 compounds from PubChem BioAssay (NCI) can be followed below.

Some test systems named below: ACHN renal; HCT-15 colon; HL-60(TB) leukemia; IGROV1 ovarian; KM12 colon; LOX IMVI melanoma; MOLT-4 leukemia; NCI-H522 lung; SK-OV-3 ovarian; SW-620 colon.
Assay in all cases: NCI anticancer screen, dose series, 48 h

As for `CCOC(=O)c1ccc(NCc2ccc3oc(=O)c(-c4ccccc4)nc3c2)cc1`, the TGI with ACHN renal was more than 100 µM; in the assay with HCT-15 colon, more than 100 µM; with HL-60(TB) leukemia, 13.2 µM; with IGROV1 ovarian, more than 100 µM; with KM12 colon it was more than 100 µM; in the assay on LOX IMVI melanoma it was more than 100 µM. In addition, the TGI with MOLT-4 leukemia was 60.4 µM; in the assay on NCI-H522 lung, 32.1 µM; with SK-OV-3 ovarian, more than 100 µM; with SW-620 colon, 50.4 µM.
As for `CC(=O)ONC(C(=O)C(C)(C)C)C(=O)C(C)(C)C`, the TGI with ACHN renal, with HCT-15 colon, with HL-60(TB) leukemia, in the assay with IGROV1 ovarian, in the assay with KM12 colon and with LOX IMVI melanoma was more than 100 µM in each case. Moreover, the TGI in the assay on MOLT-4 leukemia, in the assay on NCI-H522 lung, in the assay with SK-OV-3 ovarian and with SW-620 colon was more than 100 µM in each case.
On to `COC(=O)c1cc2c(cc1Cl)Sc1nnc(Nc3ccc(C)cc3)n1S2(=O)=O`, for which the TGI was 8.8 µM in the assay with ACHN renal; 12.5 µM in the assay on HCT-15 colon; 13.8 µM in the assay on HL-60(TB) leukemia; 7.75 µM with IGROV1 ovarian; 20.3 µM in the assay with KM12 colon; 7.07 µM in the assay on MOLT-4 leukemia. Also, the TGI with NCI-H522 lung worked out at 10.3 µM; in the assay on SK-OV-3 ovarian it was 24.1 µM.
As to `CCN(CC)CCSc1c2cc(OC)ccc2nc2ccc(OC)cc12`, the TGI is 3.12 µM with ACHN renal; more than 100 µM in the assay with HCT-15 colon; more than 100 µM in the assay with HL-60(TB) leukemia; 4.11 µM in the assay with IGROV1 ovarian; more than 71 µM in the assay with KM12 colon; more than 21.8 µM in the assay on MOLT-4 leukemia. Also, the TGI in the assay with NCI-H522 lung is 3.1 µM; in the assay on SK-OV-3 ovarian, more than 54.4 µM; in the assay on SW-620 colon, more than 100 µM.
Take `C=CCCC1(CC(Sc2ccccc2)P(=O)(c2ccccc2)c2ccccc2)OCCO1` (centres undefined): the TGI in the assay on ACHN renal, in the assay on HCT-15 colon, with HL-60(TB) leukemia, with IGROV1 ovarian, in the assay on KM12 colon and with LOX IMVI melanoma was more than 10 µM in each case. In addition, the TGI with MOLT-4 leukemia, in the assay on SK-OV-3 ovarian and in the assay with SW-620 colon was more than 10 µM in each case.
With `O=C1NC2O[C@H](CNC(=O)c3cc(Br)c[nH]3)CC2(O)N1` (mixture of isomers), the TGI in the assay with ACHN renal, in the assay on HCT-15 colon, in the assay with HL-60(TB) leukemia, in the assay with IGROV1 ovarian, with KM12 colon and with MOLT-4 leukemia was more than 100 µM in each case. The TGI in the assay with NCI-H522 lung, with SK-OV-3 ovarian and in the assay with SW-620 colon was more than 100 µM throughout.
As to `Nc1nc([O-])c2c(n1)[n+](C1OC(CO)C(O)C1O)cn2CCO` (centres undefined), the TGI in the assay with ACHN renal, with HCT-15 colon, with HL-60(TB) leukemia, with IGROV1 ovarian, with KM12 colon and with LOX IMVI melanoma was more than 100 µM each time. Besides, the TGI with NCI-H522 lung, in the assay with SK-OV-3 ovarian and with SW-620 colon was more than 100 µM in each case.
Regarding `C(/C=C/Nc1ccc(Oc2ccccc2)cc1)=Nc1ccc(Oc2ccccc2)cc1`, the TGI worked out at 50.9 µM in the assay with ACHN renal; 33.6 µM in the assay with HCT-15 colon; 49.7 µM in the assay with HL-60(TB) leukemia; 33 µM in the assay with IGROV1 ovarian; 30.3 µM with KM12 colon; 28.2 µM in the assay with LOX IMVI melanoma. In addition, the TGI was found to be 37.7 µM in the assay with NCI-H522 lung and 34.6 µM in the assay with SW-620 colon.
Consider `CO/C=C(/C(=O)OC)c1ccccc1COc1cccc(C(F)(F)F)c1`, for which the TGI with ACHN renal is more than 100 µM; in the assay with HCT-15 colon, more than 100 µM; in the assay on HL-60(TB) leukemia it was 3.99 µM; in the assay with IGROV1 ovarian, 47.3 µM; with KM12 colon, more than 100 µM; with LOX IMVI melanoma it was 13.6 µM. Also, the TGI in the assay on MOLT-4 leukemia is more than 100 µM; in the assay on NCI-H522 lung it was 5.86 µM; in the assay on SK-OV-3 ovarian it was more than 100 µM.
As for `N#Cc1[nH]c(=O)n(-c2ccccc2)c1N`, the TGI is more than 10 µM with ACHN renal; more than 10 µM in the assay on HCT-15 colon; more than 10 µM with HL-60(TB) leukemia; more than 10 µM with IGROV1 ovarian; more than 10 µM in the assay with KM12 colon; 1.58 µM in the assay with LOX IMVI melanoma. In addition, the TGI in the assay with MOLT-4 leukemia, with SK-OV-3 ovarian and in the assay with SW-620 colon was more than 10 µM in each case.
Consider `CCCc1c(O)nc(Nc2nc3ccccc3[nH]2)[nH]c1=O`, for which the TGI with ACHN renal, in the assay with HCT-15 colon, with HL-60(TB) leukemia, in the assay on IGROV1 ovarian, in the assay with KM12 colon and in the assay with MOLT-4 leukemia was more than 100 µM throughout. For the same compound, the TGI in the assay on NCI-H522 lung, in the assay with SK-OV-3 ovarian and in the assay with SW-620 colon was more than 100 µM each time.
As for `CCOC(=O)CNC(=O)N(CC)C12CC3CC(CC(C3)C1)C2`, the TGI in the assay on HCT-15 colon was 228 µM; with HL-60(TB) leukemia it was 314 µM; in the assay on IGROV1 ovarian, 524 µM; in the assay on KM12 colon, 453 µM; in the assay with LOX IMVI melanoma, 252 µM; with MOLT-4 leukemia, 322 µM. Also, the TGI with NCI-H522 lung came out at 323 µM; with SK-OV-3 ovarian, 216 µM; with SW-620 colon, 297 µM.
Regarding `CCOC(=O)c1cc2c3ccn(Cc4ccccc4)c3c3c(C)[nH]oc3c2n1`, the TGI with ACHN renal, with HCT-15 colon, in the assay with HL-60(TB) leukemia, in the assay on IGROV1 ovarian, in the assay with KM12 colon and in the assay with LOX IMVI melanoma was more than 100 µM each time. For the same compound, the TGI in the assay on MOLT-4 leukemia, with NCI-H522 lung and in the assay with SW-620 colon was more than 100 µM throughout.
With `N#CCCC(CCC#N)(CCC#N)NO`, the TGI in the assay with ACHN renal was more than 100 µM; with HCT-15 colon, more than 100 µM; in the assay with HL-60(TB) leukemia it was more than 100 µM; in the assay with IGROV1 ovarian it was more than 100 µM; in the assay with KM12 colon, more than 100 µM; in the assay on NCI-H522 lung, 46.1 µM. The TGI with SK-OV-3 ovarian and with SW-620 colon was more than 100 µM in each case.
For the compound `Cn1c([C@H](C#N)c2ncccc2[N+](=O)[O-])nc2ccccc21`, the TGI in the assay with ACHN renal, with HCT-15 colon, in the assay with HL-60(TB) leukemia, in the assay on KM12 colon, in the assay on LOX IMVI melanoma and in the assay with MOLT-4 leukemia was more than 100 µM in each case. Besides, the TGI with NCI-H522 lung was 38.3 µM; in the assay with SK-OV-3 ovarian, more than 100 µM; with SW-620 colon it was more than 100 µM.
